# In article PMC5988656, “Phase I studies of AZD1208, a proviral integration Moloney virus kinase inhibitor in solid and haematological cancers” (British Journal of Cancer, 2018):
# Several values for one entry are separate records, joined by “and”; a condition that tells them apart may be missing. Identical values can stand only once.
# Key:
# CYP3A4 = CYP3A4 activity assessed by 4-β-hydroxycholesterol levels, solid tumour study; type: in vivo, human; details: for 4-β-hydroxycholesterol Day 15 concentration / 4-β-hydroxycholesterol ratio (Day 15/Day 1): individual subjects
# Experimental: In the solid tumour study, blood samples for 4β-hydroxycholesterol analysis were collected pre-dose at Cycle 0, Day 1; Cycle 1 (Day 8 and 15); and Cycle 2, Day 15.
# The activity of CYP3A4 was assessed by analysing 4-β-hydroxycholesterol levels in samples collected from five patients at AZD1208 doses of 700 or 800 mg.
# pBAD S112 = assay: PD: phosphorylated BAD at S112 by MesoScale Discovery ELISA, AML study; type: in vivo, human
# Experimental: For AZD1208 PD evaluations, bone marrow aspirates were collected (pretreatment and Cycle 1, Day 1, 2–6 h following administration of AZD1208) and peripheral blood samples were collected (pretreatment on Cycle 1, Day 1; and on-treatment at Cycle 1, Day 1 at 3, 6 and 24 h post-dose; Cycle 1, Day 14 at pre-dose, 3 and 6 h post-dose). Mononuclear cells were isolated, and protein lysates prepared, for subsequent analysis of phosphorylated BAD at S112 by MesoScale Discovery ELISA and phosphorylation of 4E-BP1 at S65 by NanoPro immunoassay [unpublished data: McEachern et al. 2018, manuscript in preparation]. Samples were considered evaluable when the baseline biomarker levels were above the background signal (as defined by buffer-only negative control samples) and within the linear range of assay. Additionally, only blood samples containing detectable blasts were considered for analysis.
# advanced solid tumours = assay: Solid tumour study: tumour response (RECIST v.1.1); type: in vivo, human; details: for Best response: CR / Best response: Death / Best response: Not evaluable / Best response: Partial response / Best response: Progression / Best response: Stable disease ≥6 weeks: RECIST criteria
# Experimental: In the solid tumour study, responses were evaluated using RECIST v.1.1. Contrast-enhanced CTs of the chest, abdomen, pelvis and neck were performed at screening (≤28 days before the start of study treatment), every 6 weeks (±1 week) up to 12 weeks, and then every 12 weeks (±1 week) until discontinuation of study treatment or withdrawal of consent, starting from Day 1 of Cycle 1.
# [1] = tested on: patients with AML or advanced solid tumours; assay: Both dose-escalation studies pooled: adverse events; type: in vivo, human
# Experimental: Safety and tolerability were assessed from the time of informed consent until the end of follow-up (defined as 30 and 28 days after study treatment was discontinued for the AML and solid tumour studies, respectively) by evaluation of adverse events (AEs), vital signs, ECGs and laboratory assessments. The CTCAE (version 4.0) was utilised to grade all AE events.
# AEs were summarised by Medical Dictionary for Regulatory Activities (MedDRA) system organ class, MedDRA preferred term and CTCAE grade. Summary statistics of mean, median, standard deviation, minimum, maximum and number of observations were used.
# AML cell lines = details: cited from earlier work
compound,measurement,setting,value
N[C@@H]1CCCN(c2c(/C=C3\SC(=O)NC3=O)cccc2-c2ccccc2)C1 [AZD1208],Increase in 4-β-hydroxycholesterol levels on Day 15 compared with Day 1,"CYP3A4; five patients, 700 or 800 mg",~ 4 fold
same,"4-β-hydroxycholesterol Day 15 concentration, Gmean (CV%)","CYP3A4; five subjects, 700 or 800 mg",114.1 (29.2) ng ml
same,"4-β-hydroxycholesterol ratio (Day 15/Day 1), Gmean (CV%)","CYP3A4; five subjects, 700 or 800 mg",4.38 (23.9)
same,4-β-hydroxycholesterol Day 15 concentration,CYP3A4; dose 700 mg,85.5 ng·mL and 91.9 ng·mL and 175 ng·mL
same,4-β-hydroxycholesterol ratio (Day 15/Day 1),CYP3A4; dose 700 mg,3.41 and 5.93 and 4.90
same,4-β-hydroxycholesterol Day 15 concentration,CYP3A4; dose 800 mg,128 ng·mL and 110 ng·mL
same,4-β-hydroxycholesterol ratio (Day 15/Day 1),CYP3A4; dose 800 mg,4.67 and 3.49
same,CYP3A4 activity,"CYP3A4; multiple dosing, 700 or 800 mg",induced
same,Patients with reductions in pBAD S112,"pBAD S112; evaluable bone marrow samples, single dose",7/17
same,Patients with ≥50% reduction from baseline of pBAD S112,"pBAD S112; peripheral blood, all dose levels",9/10
same,"Discontinued study treatment due to disease progression, patients",advanced solid tumours; 35 patients,65.7%
same,Best response: CR,"advanced solid tumours; 120 mg, n=3",0 n (%)
same,Best response: Death,"advanced solid tumours; 120 mg, n=3",0 n (%)
same,Best response: Not evaluable,"advanced solid tumours; 120 mg, n=3",0 n (%)
same,Best response: Partial response,"advanced solid tumours; 120 mg, n=3",0 n (%)
same,Best response: Progression,"advanced solid tumours; 120 mg, n=3",1 (33.3) n (%)
same,Best response: Stable disease ≥6 weeks,"advanced solid tumours; 120 mg, n=3",2 (66.7) n (%)
same,Best response: CR,"advanced solid tumours; 240 mg, n=7",0 n (%)
same,Best response: Death,"advanced solid tumours; 240 mg, n=7",0 n (%)
same,Best response: Not evaluable,"advanced solid tumours; 240 mg, n=7",0 n (%)
same,Best response: Partial response,"advanced solid tumours; 240 mg, n=7",0 n (%)
same,Best response: Progression,"advanced solid tumours; 240 mg, n=7",2 (28.6) n (%)
same,Best response: Stable disease ≥6 weeks,"advanced solid tumours; 240 mg, n=7",5 (71.4) n (%)
same,Best response: CR,"advanced solid tumours; 360 mg, n=5",0 n (%)
same,Best response: Death,"advanced solid tumours; 360 mg, n=5",0 n (%)
same,Best response: Not evaluable,"advanced solid tumours; 360 mg, n=5",1 (20.0) n (%)
same,Best response: Partial response,"advanced solid tumours; 360 mg, n=5",0 n (%)
same,Best response: Progression,"advanced solid tumours; 360 mg, n=5",3 (60.0) n (%)
same,Best response: Stable disease ≥6 weeks,"advanced solid tumours; 360 mg, n=5",1 (20.0) n (%)
same,Best response: CR,"advanced solid tumours; 540 mg, n=7",0 n (%)
same,Best response: Death,"advanced solid tumours; 540 mg, n=7",0 n (%)
same,Best response: Not evaluable,"advanced solid tumours; 540 mg, n=7",1 (14.3) n (%)
same,Best response: Partial response,"advanced solid tumours; 540 mg, n=7",0 n (%)
same,Best response: Progression,"advanced solid tumours; 540 mg, n=7",3 (42.9) n (%)
same,Best response: Stable disease ≥6 weeks,"advanced solid tumours; 540 mg, n=7",3 (42.9) n (%)
same,Best response: CR,"advanced solid tumours; 700 mg, n=6",0 n (%)
same,Best response: Death,"advanced solid tumours; 700 mg, n=6",1 (16.7) n (%)
same,Best response: Not evaluable,"advanced solid tumours; 700 mg, n=6",2 (33.3) n (%)
same,Best response: Partial response,"advanced solid tumours; 700 mg, n=6",0 n (%)
same,Best response: Progression,"advanced solid tumours; 700 mg, n=6",3 (50.0) n (%)
same,Best response: Stable disease ≥6 weeks,"advanced solid tumours; 700 mg, n=6",1 (16.7) n (%)
same,Best response: CR,"advanced solid tumours; 800 mg, n=5",0 n (%)
same,Best response: Death,"advanced solid tumours; 800 mg, n=5",0 n (%)
same,Best response: Not evaluable,"advanced solid tumours; 800 mg, n=5",1 (20.0) n (%)
same,Best response: Partial response,"advanced solid tumours; 800 mg, n=5",0 n (%)
same,Best response: Progression,"advanced solid tumours; 800 mg, n=5",3 (60.0) n (%)
same,Best response: Stable disease ≥6 weeks,"advanced solid tumours; 800 mg, n=5",1 (20.0) n (%)
same,Best objective response: progression,"advanced solid tumours; RECIST, all doses",14 n
same,Best objective response: stable disease for ≥6 weeks,"advanced solid tumours; RECIST, all doses",13 n
same,Objective response rate,"advanced solid tumours; RECIST, all doses",0%
same,Patients with stable disease at Week 12,advanced solid tumours; five patients evaluable,four
same,Prostate-specific antigen (PSA) levels,advanced solid tumours; one patient with prostate cancer,considerable reduction
same,Patients who experienced adverse events,[1],98.5%
same,Patients with gastrointestinal adverse events,[1],92.5%
same,Effect on cell cycle and apoptosis,AML cell lines,induced cell cycle arrest and apoptosis
